Results as given in ChEMBL document CHEMBL3997765 (Medchemcomm, 2016).

What was measured:
[1] = biological target: Serine/threonine-protein kinase pim-1 (Homo sapiens) (UniProt P11309); test: Inhibition of full length recombinant human His-tagged PIM1 expressed in baculovirus expression system at 10 uM relative to control
[2] = biological target: Rho-associated protein kinase 1 (Homo sapiens) (UniProt Q13464); test: Inhibition of recombinant human GST-tagged ROCK1 catalytic domain (1 to 535 residues) expressed in baculovirus expression system at 10 uM relative to control
[3] = biological target: Angiopoietin-1 receptor (Homo sapiens) (UniProt Q02763); test: Inhibition of recombinant human GST-tagged TIE2 cytoplasmic domain (817 to 1101 residues) expressed in baculovirus expression system at 10 uM by Z'-LYTE assay relative to control
[4] = biological target: Protein kinase C beta type (Homo sapiens) (UniProt P05771); test: Inhibition of full length recombinant human PKCbeta1 expressed in baculovirus expression system at 10 uM relative to control
Protein kinase C beta type (Homo sapiens), sequence (P05771 2-671 limits assumed): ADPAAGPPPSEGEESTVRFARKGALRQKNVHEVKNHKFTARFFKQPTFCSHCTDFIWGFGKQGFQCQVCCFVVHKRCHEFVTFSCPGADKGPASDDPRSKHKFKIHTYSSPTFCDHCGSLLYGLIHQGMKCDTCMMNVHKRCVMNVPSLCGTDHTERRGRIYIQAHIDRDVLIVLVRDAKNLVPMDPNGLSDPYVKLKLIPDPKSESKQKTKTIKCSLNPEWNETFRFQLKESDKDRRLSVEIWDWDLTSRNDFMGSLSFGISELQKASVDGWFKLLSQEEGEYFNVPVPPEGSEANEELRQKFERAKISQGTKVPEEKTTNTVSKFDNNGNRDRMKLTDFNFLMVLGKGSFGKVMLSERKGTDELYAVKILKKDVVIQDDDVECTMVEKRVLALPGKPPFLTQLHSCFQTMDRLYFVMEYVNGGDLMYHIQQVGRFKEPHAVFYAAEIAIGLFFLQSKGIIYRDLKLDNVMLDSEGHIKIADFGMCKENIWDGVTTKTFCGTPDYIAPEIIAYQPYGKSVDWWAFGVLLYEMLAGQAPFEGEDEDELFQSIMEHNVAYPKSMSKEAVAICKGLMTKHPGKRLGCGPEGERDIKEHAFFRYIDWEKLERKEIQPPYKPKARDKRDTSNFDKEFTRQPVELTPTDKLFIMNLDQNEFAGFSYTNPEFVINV

[5] = biological target: Vascular endothelial growth factor receptor 2 (Homo sapiens) (UniProt P35968); test: Inhibition of recombinant human His-tagged KDR cytoplasmic domain (789 to 1356 residues) expressed in baculovirus expression system at 10 uM by Z'-LYTE assay relative to control
Vascular endothelial growth factor receptor 2 (Homo sapiens), sequence (P35968 whole entry, the tested form may be a part): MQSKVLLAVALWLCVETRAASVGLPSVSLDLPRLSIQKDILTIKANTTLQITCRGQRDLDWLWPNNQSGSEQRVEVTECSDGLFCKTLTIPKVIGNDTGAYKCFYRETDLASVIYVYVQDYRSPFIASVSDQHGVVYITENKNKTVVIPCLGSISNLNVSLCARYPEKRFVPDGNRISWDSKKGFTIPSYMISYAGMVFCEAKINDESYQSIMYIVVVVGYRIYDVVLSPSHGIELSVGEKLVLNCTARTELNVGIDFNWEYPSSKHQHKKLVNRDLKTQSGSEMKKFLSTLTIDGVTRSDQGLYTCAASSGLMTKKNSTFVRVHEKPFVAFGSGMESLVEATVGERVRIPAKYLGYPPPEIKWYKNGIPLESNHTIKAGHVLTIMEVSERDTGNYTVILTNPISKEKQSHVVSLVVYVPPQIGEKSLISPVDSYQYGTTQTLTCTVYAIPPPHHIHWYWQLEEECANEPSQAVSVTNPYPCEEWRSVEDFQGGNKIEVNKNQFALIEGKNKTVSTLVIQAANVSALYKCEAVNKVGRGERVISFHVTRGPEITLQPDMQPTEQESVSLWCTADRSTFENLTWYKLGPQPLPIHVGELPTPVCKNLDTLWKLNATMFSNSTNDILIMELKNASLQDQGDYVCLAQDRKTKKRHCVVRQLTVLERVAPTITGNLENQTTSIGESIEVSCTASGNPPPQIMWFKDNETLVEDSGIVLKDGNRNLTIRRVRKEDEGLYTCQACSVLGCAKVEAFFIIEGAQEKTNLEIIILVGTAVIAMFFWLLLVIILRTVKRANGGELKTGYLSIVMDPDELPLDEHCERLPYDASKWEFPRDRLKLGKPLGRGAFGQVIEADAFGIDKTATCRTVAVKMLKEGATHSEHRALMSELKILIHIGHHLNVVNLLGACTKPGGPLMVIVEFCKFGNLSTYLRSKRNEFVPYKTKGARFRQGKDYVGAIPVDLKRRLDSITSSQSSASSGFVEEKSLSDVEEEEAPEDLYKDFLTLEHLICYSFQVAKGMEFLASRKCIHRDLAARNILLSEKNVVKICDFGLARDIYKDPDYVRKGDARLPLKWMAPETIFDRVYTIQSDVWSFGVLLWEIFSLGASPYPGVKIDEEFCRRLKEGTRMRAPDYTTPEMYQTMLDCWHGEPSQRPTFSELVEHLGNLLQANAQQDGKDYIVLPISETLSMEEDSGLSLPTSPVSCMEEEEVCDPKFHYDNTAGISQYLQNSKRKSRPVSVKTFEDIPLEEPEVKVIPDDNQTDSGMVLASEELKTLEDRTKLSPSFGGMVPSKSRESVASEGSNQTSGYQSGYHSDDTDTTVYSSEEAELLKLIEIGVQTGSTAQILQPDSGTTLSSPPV

[6] = biological target: Insulin-like growth factor 1 receptor (Homo sapiens) (UniProt P08069); test: Inhibition of recombinant human C-terminal His-tagged IGF1R cytoplasmic domain (960 to 1397 residues) expressed in baculovirus expression system at 10 uM by Z'-LYTE assay relative to control
[7] = biological target: Receptor tyrosine-protein kinase erbB-2 (Homo sapiens) (UniProt P04626); test: Inhibition of recombinant human His-tagged HER2 cytoplasmic domain (676 to 1255 residues) expressed in baculovirus expression system at 10 uM by Z'-LYTE assay relative to control
[8] = biological target: Casein kinase I isoform gamma-2 (Homo sapiens) (UniProt P78368); test: Inhibition of full length recombinant human His-tagged CK1gamma2 expressed in baculovirus expression system at 10 uM by Z'-LYTE assay relative to control
Casein kinase I isoform gamma-2 (Homo sapiens), sequence (P78368 whole entry, looked up, the tested form may be a part, canonical isoform): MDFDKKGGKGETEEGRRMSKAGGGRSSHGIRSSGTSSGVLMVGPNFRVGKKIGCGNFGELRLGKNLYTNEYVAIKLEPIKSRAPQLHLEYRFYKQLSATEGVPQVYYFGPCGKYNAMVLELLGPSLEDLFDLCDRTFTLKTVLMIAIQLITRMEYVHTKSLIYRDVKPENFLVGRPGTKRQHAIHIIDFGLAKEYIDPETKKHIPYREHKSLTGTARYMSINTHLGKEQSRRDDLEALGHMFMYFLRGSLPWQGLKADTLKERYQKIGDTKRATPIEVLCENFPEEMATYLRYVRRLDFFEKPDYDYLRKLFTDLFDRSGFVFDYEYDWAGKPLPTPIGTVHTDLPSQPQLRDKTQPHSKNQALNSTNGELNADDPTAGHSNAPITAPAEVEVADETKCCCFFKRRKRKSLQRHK

[9] = biological target: Tyrosine-protein kinase ABL1 (Homo sapiens) (UniProt P00519); test: Inhibition of recombinant human His-tagged ABL1 cytoplasmic domain expressed in baculovirus expression system at 10 uM by Z'-LYTE assay relative to control
[10] = biological target: MAP kinase-activated protein kinase 2 (Homo sapiens) (UniProt P49137); test: Inhibition of full length recombinant human His-tagged MAPKAPK2 expressed in Escherichia coli at 10 uM by Z'-LYTE assay relative to control
MAP kinase-activated protein kinase 2 (Homo sapiens), sequence (P49137 whole entry, looked up, the tested form may be a part): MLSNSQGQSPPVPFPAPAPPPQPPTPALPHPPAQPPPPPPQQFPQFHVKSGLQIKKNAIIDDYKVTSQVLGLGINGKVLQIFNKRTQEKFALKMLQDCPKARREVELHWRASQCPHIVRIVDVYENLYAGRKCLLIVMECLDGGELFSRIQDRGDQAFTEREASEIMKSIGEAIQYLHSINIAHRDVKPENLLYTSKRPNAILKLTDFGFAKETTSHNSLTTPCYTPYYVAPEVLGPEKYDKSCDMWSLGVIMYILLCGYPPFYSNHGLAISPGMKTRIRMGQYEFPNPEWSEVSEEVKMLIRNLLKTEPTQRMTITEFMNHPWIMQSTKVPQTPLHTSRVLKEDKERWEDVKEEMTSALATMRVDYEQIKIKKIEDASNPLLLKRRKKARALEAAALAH

[11] = biological target: Receptor-type tyrosine-protein kinase FLT3 (Homo sapiens) (UniProt P36888); test: Inhibition of recombinant human His-tagged FLT3 cytoplasmic domain (564 to 958 residues) expressed in baculovirus expression system at 10 uM by Z'-LYTE assay relative to control
Receptor-type tyrosine-protein kinase FLT3 (Homo sapiens), sequence (P36888 whole entry, the tested form may be a part): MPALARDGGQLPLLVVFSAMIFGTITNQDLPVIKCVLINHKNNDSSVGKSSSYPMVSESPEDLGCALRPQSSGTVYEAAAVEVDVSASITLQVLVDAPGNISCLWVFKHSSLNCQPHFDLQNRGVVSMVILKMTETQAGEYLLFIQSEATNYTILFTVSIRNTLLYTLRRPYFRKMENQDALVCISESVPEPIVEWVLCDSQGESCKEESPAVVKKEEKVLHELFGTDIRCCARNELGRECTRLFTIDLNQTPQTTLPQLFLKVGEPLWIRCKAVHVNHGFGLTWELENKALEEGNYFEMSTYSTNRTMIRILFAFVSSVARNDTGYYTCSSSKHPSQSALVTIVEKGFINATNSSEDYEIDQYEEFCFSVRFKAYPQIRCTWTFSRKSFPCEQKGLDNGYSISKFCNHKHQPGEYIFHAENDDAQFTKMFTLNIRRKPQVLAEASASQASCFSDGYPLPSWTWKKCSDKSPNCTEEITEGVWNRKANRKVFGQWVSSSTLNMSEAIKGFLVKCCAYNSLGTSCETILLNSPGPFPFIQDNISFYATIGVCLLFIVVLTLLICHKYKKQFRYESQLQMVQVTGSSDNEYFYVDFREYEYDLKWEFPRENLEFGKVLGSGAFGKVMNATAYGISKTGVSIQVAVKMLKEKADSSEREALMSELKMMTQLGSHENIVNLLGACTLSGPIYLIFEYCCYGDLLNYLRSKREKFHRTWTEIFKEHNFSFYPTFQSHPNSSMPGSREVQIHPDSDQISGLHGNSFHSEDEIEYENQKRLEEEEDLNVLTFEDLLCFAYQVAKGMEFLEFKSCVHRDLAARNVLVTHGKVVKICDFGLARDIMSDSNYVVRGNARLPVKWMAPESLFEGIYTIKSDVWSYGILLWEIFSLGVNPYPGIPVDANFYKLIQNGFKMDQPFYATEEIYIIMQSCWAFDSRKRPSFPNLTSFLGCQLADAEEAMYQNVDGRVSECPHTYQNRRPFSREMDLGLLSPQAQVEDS

[12] = biological target: Proto-oncogene tyrosine-protein kinase receptor Ret (Homo sapiens) (UniProt P07949); test: Inhibition of recombinant human GST-tagged RET cytoplasmic domain (658 to 1114 residues) expressed in baculovirus expression system at 10 uM relative to control
Proto-oncogene tyrosine-protein kinase receptor Ret (Homo sapiens), sequence (P07949 whole entry, the tested form may be a part): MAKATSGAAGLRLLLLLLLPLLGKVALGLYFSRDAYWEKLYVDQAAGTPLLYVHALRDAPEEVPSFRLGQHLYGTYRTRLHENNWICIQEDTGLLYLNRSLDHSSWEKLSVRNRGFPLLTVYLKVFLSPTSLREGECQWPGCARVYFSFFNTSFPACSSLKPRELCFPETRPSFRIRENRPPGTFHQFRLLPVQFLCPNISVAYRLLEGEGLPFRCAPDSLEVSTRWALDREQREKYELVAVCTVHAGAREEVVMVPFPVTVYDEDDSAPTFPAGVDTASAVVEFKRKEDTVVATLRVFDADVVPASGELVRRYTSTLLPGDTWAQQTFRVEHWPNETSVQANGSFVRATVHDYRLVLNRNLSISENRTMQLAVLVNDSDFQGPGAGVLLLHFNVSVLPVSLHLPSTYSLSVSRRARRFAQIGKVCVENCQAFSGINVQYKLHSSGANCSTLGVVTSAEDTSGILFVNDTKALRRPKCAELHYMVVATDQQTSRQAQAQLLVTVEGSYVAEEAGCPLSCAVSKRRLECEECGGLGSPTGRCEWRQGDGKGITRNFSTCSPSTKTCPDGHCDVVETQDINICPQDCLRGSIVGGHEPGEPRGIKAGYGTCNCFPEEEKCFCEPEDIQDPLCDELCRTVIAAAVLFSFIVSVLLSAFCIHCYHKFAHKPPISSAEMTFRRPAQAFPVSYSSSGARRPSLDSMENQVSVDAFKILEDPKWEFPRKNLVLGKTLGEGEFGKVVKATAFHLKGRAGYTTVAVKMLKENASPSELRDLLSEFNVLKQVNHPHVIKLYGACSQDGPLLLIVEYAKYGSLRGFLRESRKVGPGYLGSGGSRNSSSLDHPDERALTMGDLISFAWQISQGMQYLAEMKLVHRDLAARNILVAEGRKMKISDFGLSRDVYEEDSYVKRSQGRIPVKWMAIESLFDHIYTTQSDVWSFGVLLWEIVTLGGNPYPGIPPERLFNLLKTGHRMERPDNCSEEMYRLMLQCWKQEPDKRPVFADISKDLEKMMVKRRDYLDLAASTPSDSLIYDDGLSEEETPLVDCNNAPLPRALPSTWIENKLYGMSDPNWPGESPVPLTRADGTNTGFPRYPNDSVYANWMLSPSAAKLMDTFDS

An inhibition [1] of 3%, an inhibition [2] of 2% and an inhibition [3] of 11% were found for `CC1=Nc2c(Sc3ccccc3)ncnc2Sc2ccccc21` in this work. For the same compound, the inhibition [4] was 1%, the inhibition [5] was 12% and the inhibition [6] was 2%. For the same compound, the inhibition [7] was -4%, the inhibition [8] was 6% and the inhibition [9] was 12%. For the same compound, the inhibition [10] was 8%, the inhibition [11] was 6% and the inhibition [12] was 7%.
